# Experimental data taken from patent US11618746B2, “Inhibitors of APOL1 and methods of using same” (Vertex Pharmaceuticals Incorporated, priority 2018, dated 2023).
# Molecular target: T1, G1 APOL1 (Homo sapiens, UniProt O14791, I384M/S342G)
# T1 construct: expressed in transfected cells
# T1 sequence (O14791 28-398 S342G/I384M): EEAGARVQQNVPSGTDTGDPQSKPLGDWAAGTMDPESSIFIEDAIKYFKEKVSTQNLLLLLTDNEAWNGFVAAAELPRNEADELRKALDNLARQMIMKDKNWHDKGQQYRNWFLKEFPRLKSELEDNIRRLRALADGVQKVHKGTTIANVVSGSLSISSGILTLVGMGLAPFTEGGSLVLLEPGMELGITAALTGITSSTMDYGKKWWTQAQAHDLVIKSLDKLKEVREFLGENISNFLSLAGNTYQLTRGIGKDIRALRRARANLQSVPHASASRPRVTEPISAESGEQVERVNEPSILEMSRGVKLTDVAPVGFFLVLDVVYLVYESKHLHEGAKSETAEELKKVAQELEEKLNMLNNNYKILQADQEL
# Test: Acute APOL1 Thallium Assay with inducible stable clones of HEK 293 cells
# Format: cell-based
# Conditions: HEK T-Rex tetracycline-inducible cells expressing G1 APOL1 (clone G1 DC3.25); inhibition of thallium flux rate
# Excerpt: Acute APOL1 Thallium Assay with Inducible Stable Clones of HEK 293 Cells
# Apolipoprotein L1 (APOL1) proteins form potassium-permeable cation pores in the plasma membrane. APOL1 risk variants (G1 and G2) induce greater potassium flux than G0 in HEK293 cells. This assay exploits the permeability of thallium (T1+) through ligand-gated potassium channels. The dye produces a bright fluorescent signal upon binding to T1+ conducted through potassium channels. The intensity of the T1+ signal is proportional to the number of potassium channels in the open state. Therefore, it provides a functional indication of the potassium channel activities. During the initial dye-loading step, the T1+ indicator dye as an acetoxymethyl (AM) ester enters the cells through passive diffusion. Cytoplasm esterases cleave the AM ester and relieve its active thallium-sensitive form. The cells are then stimulated with T1+. The increase of fluorescence in the assay represents the influx of T1+ into the cell specifically through the potassium channel (i.e. through APOL1 pores), providing a functional measurement of potassium channel/pore activity. The Thallium assay is conducted with cells expressing G1 APOL1.
# APOL1 Cell Line (HEK T-Rex Stable Inducible Cell Line) • HEK T-Rex System • Tetracycline (Tet) inducible mammalian expression system. • Stably express the Tet repressor to regulate transcription. • Expression under the full-length CMV promoter. • APOL1 stable inducible cell line Clone used: G1 DC3.25
# Tissue Culture Media • Cell Culture Medium • DMEM +10% FBS +P/S +5 μg/mL blasticidin+1 μg/mL puromycin. • 500 mL DMEM +55 mL FBS +5 mL P/S +280 μL blasticidin S HCl (10 mg/mL)+56 μL puromycin (10 mg/mL). • Cell Assay Medium • DMEM with 2% FBS+pen strep.
# Instruments and Equipment • Nuaire cell culture hood, Cat. No. 540-600 • 37° C./5% CO2 incubator link to robotic arm, Liconic: STX110 • Molecular Devices FLIPR^Tetra High throughput cellular screening system, Cat. No. FT0324, Molecular Devices • ThermoFisher MultiDrop 384, Cat. No. 5840300 • Biotek Microfill, Cat. No. ASF1000A-4145 • BioRad TC10 cell counter, Cat. No. 145-0010 Assay Procedures
# Cells Scaled Up from Frozen Vials • APOL1 G1 3.25 (HEK293 T-Rex) frozen vials: 5 million cells per vial • Step 1, Day 1: Defrost frozen vial into T-225. • Step 2, Day 5: (when 85% confluent): Split one T-225 at 3×10^6 cells per flask. • Step 3, Day 8: Splits cells to set up for the assay plates as described below.
# T-Rex APOL1 HEK cells are split twice per week to keep the confluence state below 85% of the culture flask surface area. Cells can be kept until passage 25. • Cell Culture Medium • DMEM high glucose +10% FBS, +P/S, +5 μg/mL blasticidin, +1 μg/mL puromycin. • 500 mL DMEM, +55 mL FBS, +5 mL P/S, +280 μL blasicidin 10 mg/mL, +56 μL Puromycin 10 mg/mL. • Assay Media • Opti-MEM reduced serum medium from Invitrogen.
# Preparation of Cell Assay Plates • Culture medium is removed from the x cm^2 T-flask by aspiration. • The cell monolayer is rinsed with PBS 1× at room temperature. PBS is removed by aspiration. • Cells are trypsinized using Trypsin. • The flasks are incubated at room temperature for 2-3 minutes. • Complete DMEM medium is then added. Cell suspension is then transferred to a 50 mL Falcon polypropylene tube. • Cells are then counted using a Biorad TC10 cell counter and the required amount of cells are centrifuged at 1200 RPM for 5 minutes. Required amount is 1.3×10^6 cells/mL APOL1 T-Rex HEK cells. • The pellet is suspended in the assay medium. • Using the MultiDrop, add 20 μL to each well (corresponds to 26000 cells total per well) of a 384-well black, transparent, flat bottom Poly-D coated plate. • Tetracycline as prepared in the following section is added to the cells before plating to induce APOL1 expression. • Plates are left at room temperature for 20 to 30 minutes before incubation at 37° C. and 5% CO2. […]
row,Compound,IC50 [µM]
1,O=C(CCc1c(-c2ccc(F)cc2)[nH]c2c(F)cc(Cl)cc12)N[C@@H]1CCNC1=O [Compound 33],0.25 to 1
2,"O=C1NC[C@@H](O)[C@@H]1NC(=O)[C@@H](O)Cc1c(-c2ccc(F)cc2)[nH]c2c(F)cc(F)cc12 [Compound 94, (2S)-3-[5,7-difluoro-2-(4-fluorophenyl)-1H-indol-3-yl]-2-hydroxy-N-[(3S,4R)-4-hydroxy-2-oxo-pyrrolidin-3-yl]propanamide]",> 1
3,O=C(CCc1c(-c2ccc(F)cc2)[nH]c2c(F)cc(F)cc12)NC1CC2(CC2)NC1=O (stereo not drawn) [Compound 17],> 1
4,CC(C)(O)c1cccc2c(CCC(=O)N[C@@H]3C(=O)NC[C@H]3O)c(-c3ccccc3)[nH]c12 [Compound 66],0.25 to 1
5,"CC(CC(=O)N[C@H]1CCNC1=O)c1c(-c2ccc(F)cc2)[nH]c2c(F)cc(F)cc12 (mixture of isomers) [Compound 96, 3-[5,7-difluoro-2-(4-fluorophenyl)-1H-indol-3-yl]-N-[(3S)-2-oxopyrrolidin-3-yl]butanamide]",> 1
6,"C[C@@H](Cc1c(-c2ccc(F)cc2)[nH]c2c(F)cc(F)cc12)C(=O)N[C@@H]1C(=O)NC[C@H]1O [Compound 91, (2S)-3-[5,7-difluoro-2-(4-fluorophenyl)-1H-indol-3-yl]-N-[(3S,4R)-4-hydroxy-2-oxo-pyrrolidin-3-yl]-2-methyl-propanamide]",0.25 to 1
7,COc1cc(F)cc2c(CCC(=O)N[C@H]3CCNC3=O)c(-c3ccc(F)cc3)[nH]c12 [Compound 41],0.25 to 1
8,"O=C(CCc1c(-c2ccccc2)[nH]c2c(C(F)(F)F)cc(F)cc12)N[C@@H]1C(=O)NC[C@H]1O [Compound 132, 3-[5-fluoro-2-phenyl-7-(trifluoromethyl)-1H-indol-3-yl]-N-[(3S,4R)-4-hydroxy-2-oxo-pyrrolidin-3-yl]propanamide]",< 0.25
9,O=C(CCc1c(-c2ccc(F)cc2)[nH]c2c(F)cc(Cl)cc12)N[C@H]1CCNC1=O [Compound 32],< 0.25
10,O=C(CCc1c(-c2ccccc2)[nH]c2c(F)cccc12)N[C@H]1CCNC1=O [Compound 60],0.25 to 1
11,Cc1cc(F)c2[nH]c(-c3ccc(F)cc3)c(CCC(=O)N[C@H]3CCNC3=O)c2c1 [Compound 31],0.25 to 1
12,"C=Cc1cccc2c(CCC(=O)N[C@@H]3C(=O)NC[C@H]3O)c(-c3ccccc3)[nH]c12 [Compound 62, N-[(3S,4R)-4-hydroxy-2-oxo-pyrrolidin-3-yl]-3-(2-phenyl-7-vinyl-1H-indol-3-yl)propanamide]",< 0.25
13,"O=C(CSc1c(-c2ccc(F)cc2)[nH]c2ccccc12)N[C@@H]1C(=O)NC[C@H]1O [Compound 130, 2-[[2-(4-fluorophenyl)-1H-indol-3-yl]sulfanyl]-N-[(3S,4R)-4-hydroxy-2-oxo-pyrrolidin-3-yl]acetamide]",< 0.25
14,"O=C(CCc1c(-c2ccc(F)cc2)[nH]c2ccccc12)N[C@H]1C(=O)NC[C@@H]1O [Compound 134, 3-[2-(4-fluorophenyl)-1H-indol-3-yl]-N-[(3R,4S)-4-hydroxy-2-oxo-pyrrolidin-3-yl]propanamide]",> 1
15,Cc1cc(F)ccc1-c1[nH]c2ccccc2c1CCC(=O)N[C@@H]1C(=O)NC[C@H]1O [Compound 119],0.25 to 1
16,"CC(CC(=O)N[C@@H]1C(=O)NC[C@H]1O)c1c(-c2ccc(F)cc2)[nH]c2c(F)cc(F)cc12 (mixture of isomers) [Compound 97, 3-[5,7-difluoro-2-(4-fluorophenyl)-1H-indol-3-yl]-N-[(3S,4R)-4-hydroxy-2-oxo-pyrrolidin-3-yl]butanamide]",> 1
17,COc1cccc2c(CCC(=O)N[C@H]3CCNC3=O)c(-c3ccc(F)cc3)[nH]c12 [Compound 77],> 1

row,Compound,IC50 [µM]
1,"O=C(CCc1c(-c2ccc(F)cc2)[nH]c2cc(O)ccc12)N[C@@H]1C(=O)NC[C@H]1O (stereo in doubt) [Compound 110, 3-[2-(4-fluorophenyl)-6-hydroxy-1H-indol-3-yl]-N-[(3S,4R)-4-hydroxy-2-oxo-pyrrolidin-3-yl]propanamide]",> 1
2,O=C(CCc1c(-c2ccccc2)[nH]c2c(Cl)cc(F)cc12)N[C@@H]1C(=O)NC[C@H]1O [Compound 35],< 0.25
3,O=C(CCc1c(-c2ccc(F)cc2)[nH]c2c(F)c(F)c(F)cc12)N[C@@H]1C(=O)NC[C@H]1O [Compound 79],< 0.25
4,"O=C(CCc1c(-c2ccc(F)cc2)[nH]c2ccccc12)N[C@@H]1C(=O)NC[C@@H]1O [Compound 135, 3-[2-(4-fluorophenyl)-1H-indol-3-yl]-N-[(3S,4S)-4-hydroxy-2-oxo-pyrrolidin-3-yl]propanamide]",> 1
5,O=C(CCc1c(-c2ccc(F)cc2)[nH]c2c(F)cc(F)cc12)N[C@H]1C[C@@H](CF)NC1=O [Compound 9],> 1
6,"C[C@@H](Cc1c(-c2ccc(F)cc2)[nH]c2c(F)cc(F)cc12)C(=O)N[C@H]1CCNC1=O [Compound 90, (2S)-3-[5,7-difluoro-2-(4-fluorophenyl)-1H-indol-3-yl]-2-methyl-N-[(3S)-2-oxopyrrolidin-3-yl]propanamide]",> 1
7,"O=C(CCc1c(-c2ccc(F)cc2)[nH]c2ccccc12)N[C@H]1C(=O)NC[C@H]1O [Compound 133, 3-[2-(4-fluorophenyl)-1H-indol-3-yl]-N-[(3R,4R)-4-hydroxy-2-oxo-pyrrolidin-3-yl]propanamide]",0.25 to 1
8,O=C(CCc1c(-c2ccccc2)[nH]c2c(C3=CCOC3)cccc12)N[C@@H]1C(=O)NC[C@H]1O [Compound 64],> 1
9,Cc1cc(F)cc2c(CCC(=O)N[C@H]3CCNC3=O)c(-c3ccc(F)cc3)[nH]c12 [Compound 39],0.25 to 1
10,Cc1ccc(-c2[nH]c3c(F)cc(F)cc3c2CCC(=O)N[C@H]2CCNC2=O)cc1 [Compound 23],< 0.25
11,"O=C(N[C@@H]1C(=O)NC[C@H]1O)[C@H](O)Cc1c(-c2ccc(F)cc2)[nH]c2c(F)cc(F)cc12 [Compound 92, (2R)-3-[5,7-difluoro-2-(4-fluorophenyl)-1H-indol-3-yl]-2-hydroxy-N-[(3S,4R)-4-hydroxy-2-oxo-pyrrolidin-3-yl]propanamide]",> 1
12,O=C(CCc1c(-c2ccc(F)cc2)[nH]c2c(Cl)cc(F)cc12)N[C@H]1CCNC1=O [Compound 34],< 0.25
13,O=C(CCc1c(-c2ccccc2)[nH]c2c(C3CCOC3)cccc12)N[C@@H]1C(=O)NC[C@H]1O (stereo partly drawn) [Compound 65],0.25 to 1
14,Cc1ccc(-c2[nH]c3c(F)cc(F)cc3c2CCC(=O)N[C@@H]2C(=O)NC[C@H]2O)cc1 [Compound 22],< 0.25
15,Cc1c(F)ccc2c(CCC(=O)N[C@@H]3C(=O)NC[C@H]3O)c(-c3ccccc3)[nH]c12 [Compound 84],< 0.25
16,C=C(C)c1cccc2c(CCC(=O)N[C@@H]3C(=O)NC[C@H]3O)c(-c3ccccc3)[nH]c12 [Compound 67],0.25 to 1
